The source of these data is US20230046081A1, “SYNERGISTIC ACTIVITY OF NOVEL COMPOUNDS AGAINST PLANKTONIC AND BIOFILM CELLS OF CLINICALLY RELEVANT PATHOGENS” (priority 2021, published 2023).

The conditions of data set [1]: dog, in vivo; cited from earlier work.
Data set [2] relates to bacterial and fungal biofilms (eight test organisms). Description: Rapid biofilm eradication, 48-h old biofilms, 2 hour exposure. The class given is cell-based. Here is the method:
This example comprises performing biofilm growth as described above. After biofilm formation, control pegs (n=6) were removed and analyzed to determine the starting biofilm cell numbers via the drop dilution method. The 48-h old biofilms on the pegs were exposed to different concentrations of test antimicrobials, dissolved in an appropriate growth medium, for 2 hours to evaluate their efficacy alone and in combination. […] Following treatment, pegs were washed twice with sterile PBS, and the biofilm cells were dislodged into recovery medium and enumerated as described above.

The test system of data set [3] is Gram-positive, Gram-negative, and fungal biofilms. Description: MBEC Assay, 48 h old biofilms on pegs, 24 h antimicrobial exposure. The class given is cell-based. To be noted: 24 hours of treatment. As to the method: The evaluation of the biofilm cultivation cell composition was evaluated using an MBEC Assay® biofilm inoculator, consisting of a polystyrene lid with 96 downward-protruding pegs and a corresponding base used to grow biofilms. A standardized inoculum was diluted in an appropriate biofilm growth medium to achieve a viable cell count of 1.5×10^6 CFU/mL of bacterial cells or 5×10^5 CFU/mL of fungal cells. Then, 150 μL of this inoculum was transferred into each appropriate well, and the peg lids were inserted into the microtiter plates. The plates were sealed with Parafilm and were incubated at optimum temperature for 48 h with slight rocking for bacteria and shaking at 200 rpm for fungal strains. After incubation, the peg lid was removed from the base and rinsed twice with sterile phosphate-buffered saline (PBS) for 2 min to remove loosely attached non-sessile cells. Before the antimicrobial challenge, the pegs in column 1 (n=8) were considered as the biofilm growth control; these pegs were removed from the lids, placed into 200 μL of recovery medium, and analyzed for starting biofilm cell numbers as described below. […] After the antimicrobial challenge, the pegs were rinsed twice with sterile PBS for 2 min and placed into a new 96-well plate containing 200 μL of recovery medium. The recovery plates were sealed with Parafilm, and biofilm cells were dislodged from the pegs by sonication for 30 min with a Branson 3510 bath sonicator. The biofilm cells in the recovery medium were serially diluted, and a drop dilution assay was performed to enumerate the viable cells.

Data set [4] has as its system commonly encountered pathogens. To be noted: cited from earlier work.
Data set [5] concerns Klebsiella pneumoniae, E. coli, S. epidermidis, P. aeruginosa, and C. albicans. To be noted: 40 mg/mL, locked for 21-25 h; cited from earlier work.

Structures can show the parent of a compound that is named as a salt.

With `[H]/N=C(\N/C(=N/[H])NCCCCCCNC(=N)NC(=N)Nc1ccc(Cl)cc1)Nc1ccc(Cl)cc1` [chlorhexidine, 1,6-bis(4-chloro-phenylbiguanido)hexane], the “cochlear or vestibular neurotoxicity” value in data set [1] is on record as “did not induce cochlear or vestibular neurotoxicity”.
As to `[H]/N=C(\N/C(=N/[H])NCCCCCCNC(=N)NC(=N)Nc1ccc(Cl)cc1)Nc1ccc(Cl)cc1` [chlorhexidine HCl, 1,6-bis(4-chloro-phenylbiguanido)hexane, reference compound], in data set [2], the “eradication of preformed biofilms, agent alone at its MBEC” value (from here on “eradication of preformed biofilms”) was “failed to eradicate”. The “concentration alone able to eradicate all established biofilms” value (“concentration alone able” below) in data set [3] amounted to 100 µg/mL.
For the compound `CCO` [ethanol, reference compound], the “eradication of preformed biofilms” value in data set [2] is “failed to eradicate”. Further, the “minimum ethanol required to provide a 3-log reduction” value in data set [4] is at least 60%. Further, the “concentration alone able” value in data set [3] was 50%.
As to `O=C(O)CN(CCN(CC(=O)O)CC(=O)O)CC(=O)O.[Na].[Na].[Na].[Na]` [tetrasodium EDTA, tetrasodium ethylenediaminetetraacetic acid], the “biofilm colonization on catheter segments” value in data set [5] is “reduced biofilm colonization”. Besides, the “eradication of preformed biofilms” value in data set [2] was “failed to eradicate”. For the same compound, in data set [3], the “concentration alone able” value came out at 4%.
